The text below walks through data of patent EP3354264A1, “PROPHYLAXIS AND TREATMENT OF NEISSERIA GONORRHOEAE EYE INFECTION” (Kingston University Higher Education Corporation, priority 2017, dated 2018).

Series [1] relates to Neisseria gonorrhoeae strain NCCP11945. The experiment in a line: Growth inhibition screen of organic acids. Format: cell-based. Conditions: strain NCCP11945, in vitro, 1 mM. The protocol:
(§1) The well characterised N. gonorrhoeae strain NCCP11945 (Chung GT et al. (2008) Complete genome sequence of Neisseria gonorrhoeae NCCP11945. Journal of Bacteriology 190: 6035-6036) was used in the screening stage of this experiment. Eight isolates that were obtained from Public Health England from various European locations were used in the log reduction assays. All isolates were first cultured for 24 hours prior to testing by plating on GC solid medium (Oxoid Limited, Hampshire, UK) with Kellogg supplements and incubating at 37 °C, 5% CO2 (Kellogg DS, Jr., et al., (1963), J Bacteriol 85: 1274-1279).
(§2) A full list of all the organic acids tested in this study is in Table 1. The tested compounds include saturated and unsaturated fatty acids, monoglycerides, dicarboxylic acids, and fatty acid sodium salts. All compounds investigated were resuspended at a concentration of 100 mM in ethanol unless stated. All chemicals were obtained from Sigma-Aldrich (Poole, Dorset, UK).
Other organic acids were also active at this concentration, as noted in Table 1.

The test system is the same in series [2]. Put plainly: Measurement of bactericidal action (log reduction). Conditions: for log reduction at 1000 µM: Neisseria gonorrhoeae. It is filed as cell-based. As to the method:
as §1, §2
(§3) Log reductions were done using the same method as in Bergsson et al., (1999), Antimicrob Agents Chemother 43: 2790-2792. Briefly, cells were suspended in GC broth (18 g/L GC Base (Oxiod, Limited) with added defined supplements) to an optical density of 0.3 at 520 nm which is approximately equivalent to 107 - 108 cells per millilitre (Macfarlane DE et al. (1980) Improved media for the culture of Neisseria gonorrhoeae. J Med Microbiol 13: 597-607). Five hundred microliters of the suspension was then added to 5 µl of the 100 mM stocks to give a final concentration of 1 mM. A negative control was also done to calculate the reduction in bacterial titre by adding 500 µl to 5 µl ethanol. The tubes were then mixed at room temperature for two minutes and immediately diluted in a 10 fold dilution series down to 10-4. The dilutions were plated by spreading 10 µl on a quarter of a plate and 100 µl of the neat solution was also plated. Plates were incubated at 37 °C for 48 hours. All samples were plated in duplicate. A reduction in viable cell count by more than 4 log10 was deemed to be bactericidal and was selected for further investigation. Bactericidal compounds were then tested at concentrations of 0.75, 0.5, and 0.25 mM (0.125 mM was also used in some potent compounds) to find the minimum bactericidal concentration. Additional testing at lower concentrations was also done on the eight clinical isolates of European origin.

Series [3] shares this test system. Put plainly: Log reduction in artificial tear fluid. Format: cell-based. The conditions noted are these: artificial tear fluid containing calcium chloride; two minute exposure; Figure 8. The protocol: Artificial tear fluid was made as in Mirejovsky et al., Optometry and Vision Science, (1991), 68: 858-864. […] Neisseria gonorrhoeae strain NCCP11945 was used in these experiments. As the previous log reductions, […] were suspended in GC broth. The cell suspension was centrifuged to remove the culture medium and the bacteria resuspended in the tear fluid. This was then added to the concentrated organic acid candidates. The cells were then counted again after two minute exposure to estimate any reduction due to the exposure to the fatty acid.
In a first experiment, the artificial tear fluid formulation includes calcium chloride to mimic the calcium in natural tears. As shown by the results in Figure 8, the anti-gonococcal properties of myristoleic acid (C14:1cΔ9), palmitoleic acid (C16:1cΔ9), linolenic acid (C18:3cΔ9,12,15), and monocaprin(C10) are retained in the artificial tear fluid formulation containing calcium chloride.
In a second experiment, calcium chloride was omitted from the artificial tear fluid formulation. The results in Figure 9 indicate that the anti-gonococcal properties of lauric acid (C12:0), tridecanoic acid (C13:0), and sodium dodecanoate were retained in the artificial tear fluid formulation without.

The subject of series [4] is panel of nine N. gonorrhoeae isolates (strain NCCP11945 and eight isolates from Public Health England). The experiment in a line: Minimum bactericidal concentration by log reduction, panel of isolates. Format: cell-based. Conditions: Neisseria gonorrhoeae, 2 min; lowest concentration tested giving an average 4 log10 reduction after two minute exposure; nine isolates; read-out: Minimum bactericidal concentration. The protocol:
as §1, §3
As shown by the results in Table 3 which presents data on the log reductions of bacterial cell counts, against a panel of nine N. gonorrhoeae isolates (strain NCCP11945 and eight isolates from Public Health England), myristoleic acid (C14:1cΔ9), palmitoleic acid (C16:1cΔ9), linolenic acid (C18:3cΔ9,12,15), and monocaprin (C10) have a minimal bactericidal concentration, defined as the lowest concentration tested to give an average 4 log10 reduction in bacterial count after a two minute exposure, of 0.5 mM. Against a panel of nine N. gonorrhoeae isolates, lauric acid (C12:0), tridecanoic acid (C13:0), and sodium dodecanoate have a minimal bactericidal concentration of 0.75 mM.

The next series is described as follows: in vitro. It is filed as cell-based, bovine. The conditions noted are these: red blood cells, bovine RBCs, shaken 1 hour at room temperature. The protocol: Whole bovine blood was obtained from a local slaughter house (ABP, Guildford, Surrey, UK), adding 90 ml blood to 10 ml of 110 mM tri-sodium citrate anticoagulant. RBCs were isolated the same day. The RBCs were washed by three repeats of centrifugation (1,500 x g for 10 minutes) and resuspension in PBSG. Testing was done following European Union Reference Laboratory for alternatives to animal testing (EURL-ECVAM) guidelines (Lewis RW (2010) DB-ALM Protocol No. 99: Red blood cell (RBC) Test System. EURL ECVAM). The organic acids were made up in DMSO and diluted to a DMSO concentration maximum of 10 % (v/v). Samples were shaken at room temperature for 1 hour and then centrifuged at 10,000 rpm for 2 minutes. An aliquot of 750 µl of the supernatant was taken and absorbance at […] tested.

Setting [5] is: NCCP11945, 2 min, read-out: Log reduction of Neisseria gonorrhoeae, strain NCCP11945, 1 mM, 2 minutes.
Where [6] appears, read: 2 min, strain NCCP11945, 1 mM, 2 minutes, read-out: Log reduction of Neisseria gonorrhoeae.
Setting [7] is: strain NCCP11945, 1 mM, 2 minutes.

≈ marks a conversion by molar mass, not a printed value. Like-named read-outs stand apart in the source and are kept apart here.

As for `O=C(O)CCCCCCC(=O)O` [Suberic acid], in series [1], the “Inhibits growth of Neisseria gonorrhoeae” value is “No”. As for `CCCCCCCCCCCCCC(=O)OCC(O)CO` (centres unmarked) [Monomyristin C14, Monomyristin], the log reduction at 1000 µM in series [2] (setting [5]) came out at 0.6. The “Inhibits growth of Neisseria gonorrhoeae” value in series [1] is “Yes”. As for `CCCCCCCC(=O)OCC(O)CO` (racemic) [1-Octanoyl-rac-Glycerol C8, 1-Octanoyl-rac-Glycerol], the “Inhibits growth of Neisseria gonorrhoeae” value in series [1] is on record as “Yes”.

As for `CCCCCCCCCCCCCCCCCC(=O)O` [Stearic acid 18:0, Stearic acid], the “Inhibits growth of Neisseria gonorrhoeae” value in series [1] is “No”.

For `O=C(O)CCC(=O)O` [Succinic acid], in series [1], the “Inhibits growth of Neisseria gonorrhoeae” value is reported as “No”.

With `CCCCC/C=C\C/C=C\C/C=C\C/C=C\CCCC(=O)O` [Arachidonic acid 20:4 cΔ5,8,11,14, Arachidonic acid], the “Inhibits growth of Neisseria gonorrhoeae” value in series [1] is “Yes”. As for `C/C=C/C=C/C(=O)O` [Sorbic acid 6:2 tΔ2,4, Sorbic acid], the “Inhibits growth of Neisseria gonorrhoeae” value in series [1] is recorded as “No”. As for `CCCCCCCCCCCC(=O)OCC(O)CO` (centres unmarked) [Monolaurin C12, Monolaurin], the log reduction at 1000 µM in series [2] (setting [5]) was 3.4. Also, the “Inhibits growth of Neisseria gonorrhoeae” value in series [1] is listed as “Yes”.

As for `CCCCCCCC/C=C\CCCCCCCCCCCC(=O)O` [Erucic acid 22:1 cΔ13, Erucic acid], the log reduction at 1000 µM in series [2] (setting [5]) was determined as 0. Further, the “Inhibits growth of Neisseria gonorrhoeae” value in series [1] is “Yes”. With `CCCCCCCCCCCCCCC(=O)O` [Pentadecylic acid 15:0, Pentadecylic acid], in series [2] (setting [6]), the log reduction at 1000 µM was 0.5. The “Inhibits growth of Neisseria gonorrhoeae” value in series [1] is “Yes”. `O=C(O)CCCCCC(=O)O` [Pimelic acid]: in series [1], the “Inhibits growth of Neisseria gonorrhoeae” value is “No”. In the case of `CCCCCC[C@@H](O)C/C=C\CCCCCCCC(=O)O` [Ricinoleic acid], the log reduction at 1000 µM in series [2] (setting [6]) was 3.5. The “Inhibits growth of Neisseria gonorrhoeae” value in series [1] is recorded as “Yes”. With `CCCCCC/C=C/CCCCCCCCCC(=O)O` [trans-Vaccenic acid 18:1 tΔ11, trans-Vaccenic acid], in series [1], the “Inhibits growth of Neisseria gonorrhoeae” value is on record as “No”. The same measure, in the same setting: to `O=C(O)CCCCCCCC(=O)O` [Azelaic acid] belongs “No”; to `CCCCCCCCCCCCCCCCC(=O)O` [Heptadecylic acid 17:0, Heptadecylic acid], “No”; to `CCCCCC/C=C\CCCCCCCCCC(=O)O` [Cis-Vaccenic acid 18:1 cAll, Cis-Vaccenic acid], “No”. Regarding `CCCCCC/C=C\CCCCCCCC(=O)O` [Palmitoleic acid 16:1 cΔ9, (9Z)-hexadec-9-enoic acid], the log reduction at 1000 µM in series [2] (setting [6]) was over 6. In series [2] (setting [7]), the “Log reduction of Neisseria gonorrhoeae” value is “able to cause a log reduction”. Also, the “anti-gonococcal properties in artificial tear fluid” value in series [3] is listed as “retained”. Further, the “Inhibits growth of Neisseria gonorrhoeae” value in series [1] is “Yes”; in series [1] (listed as palmitoleic acid), “able to inhibit growth”. In addition, the MBC in series [4] was 500 µM (≈ 127 µg/mL). Further, the HC50 at 1 h in “in vitro” (read-out: H50) lay in the range of 80 to 160 µM; in the series “in vitro” (read-out: H50 (mg/L)), 20 to 40 mg/L. For the molecule `CCCCCCCC/C=C/CCCCCCCC(=O)O` [Elaidic acid 18:1 tΔ9, Elaidic acid], the log reduction at 1000 µM in series [2] (setting [6]) is 0.5. The “Inhibits growth of Neisseria gonorrhoeae” value in series [1] is recorded as “Yes”. As for `CCCCC/C=C\C/C=C\CCCCCCCC(=O)O` [Linoleic acid 18:2 cΔ9,12, Linoleic acid], the log reduction at 1000 µM in series [2] (setting [6]) was 1.6. In addition, in series [1], the “Inhibits growth of Neisseria gonorrhoeae” value was “Yes”. For the molecule `CCCCCCCCCCCCCC(=O)OC(C)C` [Isopropyl myristate], in series [1], the “Inhibits growth of Neisseria gonorrhoeae” value is listed as “No”.

As for `O=C(O)CCCCCCCCC(=O)O` [Sebacic acid], the “Inhibits growth of Neisseria gonorrhoeae” value in series [1] is on record as “No”. For the molecule `CCCCCCCC/C=C\CCCCCCCC(=O)O` [Oleic acid 18:1 cΔ9, Oleic acid], the log reduction at 1000 µM in series [2] (setting [6]) was determined as 1. Besides, in series [1], the “Inhibits growth of Neisseria gonorrhoeae” value is “Yes”.

On to `CCCCCCCC(=O)O` [Caprylic/Octanoic acid 8:0, Octanoic acid], for which the “Inhibits growth of Neisseria gonorrhoeae” value in series [1] is reported as “No”. As to `CC/C=C\C/C=C\C/C=C\CCCCCCCC(=O)O` [Linolenic acid 18:3 cΔ9,12,15, α-linolenic acid], in series [2] (setting [6]), the log reduction at 1000 µM was over 6. For the same molecule, the “Log reduction of Neisseria gonorrhoeae” value in series [2] (setting [7]) is “able to cause a log reduction”. The “anti-gonococcal properties in artificial tear fluid” value in series [3] is “retained”. Further, the “Inhibits growth of Neisseria gonorrhoeae” value in series [1] is reported as “Yes”; in series [1] (listed as linolenic acid), “able to inhibit growth”. The MBC in series [4] turned out to be 500 µM (≈ 139 µg/mL). The HC50 at 1 h in the series “in vitro” (read-out: H50) is 70 to 140 µM; in the series “in vitro” (read-out: H50 (mg/L)), 20 to 40 mg/L.

Consider `CCCCCCCCCCCCCC(=O)O` [Myristic acid 14:0, Myristic acid], for which the “Log reduction of Neisseria gonorrhoeae” value in series [2] (setting [7]) was 1.5. In series [1], the “Inhibits growth of Neisseria gonorrhoeae” value is reported as “Yes”. As to `CCCCCCCCCCCCCCCC(=O)OC(C)C` [Isopropyl palmitate], the “Inhibits growth of Neisseria gonorrhoeae” value in series [1] is reported as “No”.

For `CCCCCCCCCCCCCCCC(=O)O` [Palmitic acid 16:0, Palmitic acid], the “Inhibits growth of Neisseria gonorrhoeae” value in series [1] is “No”. On to `CCCCCCCCCCC(=O)O` [Undecanoic acid 11:0, Undecanoic acid], for which, in series [2] (setting [6]), the log reduction at 1000 µM is 0.2. In addition, the “Inhibits growth of Neisseria gonorrhoeae” value in series [1] is “Yes”.

`CCCCCCCCCCCCCC(=O)[O-].[Na+]` [Sodium myristate]: in series [2] (setting [7]), the “Log reduction of Neisseria gonorrhoeae” value turned out to be 0.5. For the same molecule, in series [1], the “Inhibits growth of Neisseria gonorrhoeae” value was “Yes”.

Consider `O=C(O)CCCCC(=O)O` [Adipic acid], for which the “Inhibits growth of Neisseria gonorrhoeae” value in series [1] is given as “No”.

As to `CCCCCCCCCC(=O)O` [Capric acid/Decanoic acid 10:0, Decanoic acid], the “Inhibits growth of Neisseria gonorrhoeae” value in series [1] is on record as “No”.
